SMILES strings stand for the structures. Values joined by “and” are separate entries in the source; they are usually repeats but may differ in a detail not shown here. Equal values may be shown once. Inconclusive results and toxic doses are left out.

The experiment concerns P388 leukemia ip, CD2F1 mice, survival T/C. Kind of experiment: NCI In Vivo Anticancer Drug Screen. Data for tumor model P388 Leukemia (intraperitoneal) in CD2F1 (CDF1) mice. The following applies: endpoint: median survival time, higher = longer survival. In a few lines: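 Mice carrying the transplanted tumor received test compound or vehicle. Survival was recorded in each group, and the value is the treated-group measurement divided by that of the vehicle-treated control group.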

Setting [1] is: dose: 50.0 mg/kg/injection, schedule: Q01DX005 (ip), vehicle: saline with Tween-80.
Setting [2] is: dose: 100.0 mg/kg/injection, schedule: Q01DX005 (ip), vehicle: saline with Tween-80.
[3] abbreviates: dose: 200.0 mg/kg/injection, schedule: Q01DX005 (ip), vehicle: saline with Tween-80.
[4] abbreviates: dose: 100.0 mg/kg/injection, schedule: Q04DX003 (ip), vehicle: saline.
[5] abbreviates: dose: 200.0 mg/kg/injection, schedule: Q04DX003 (ip), vehicle: saline.
Setting [6] is: dose: 400.0 mg/kg/injection, schedule: Q04DX003 (ip), vehicle: saline.
The mark [7] stands for this setting: dose: 60.0 mg/kg/injection, schedule: Q01DX005 (ip), vehicle: Klucel (hydroxypropylcellulose) (HPC).
Where [8] appears, read: dose: 120.0 mg/kg/injection, schedule: Q01DX005 (ip), vehicle: Klucel (hydroxypropylcellulose) (HPC).
Setting [9] is: dose: 240.0 mg/kg/injection, schedule: Q01DX005 (ip), vehicle: Klucel (hydroxypropylcellulose) (HPC).
Setting [10] is: dose: 60.0 mg/kg/injection, schedule: Q01DX005 (ip), vehicle: saline with Tween-80.
Where [11] appears, read: dose: 120.0 mg/kg/injection, schedule: Q01DX005 (ip), vehicle: saline with Tween-80.
Where [12] appears, read: dose: 240.0 mg/kg/injection, schedule: Q01DX005 (ip), vehicle: saline with Tween-80.

As for `CC(=O)c1c(-c2ccc(F)cc2)c(-c2ccc(F)cc2)nn(CCO)c1=O`, the T/C under setting [1] was 98 % of control, the T/C under setting [2] is 100 % of control and the T/C under setting [3] is 98 % of control.
As for `CC[PH+](CC)CC[S-].CC[PH+](CC)CC[S-].[Au+].[Au+]`, the T/C was 109 % of control (dose: 2.5 mg/kg/injection, schedule: Q01DX009 (ip), vehicle: Klucel (hydroxypropylcellulose) (HPC)); 114 % of control and 115 % of control (dose: 5.0 mg/kg/injection, schedule: Q01DX009 (ip), vehicle: Klucel (hydroxypropylcellulose) (HPC)); 153 % of control (dose: 20.0 mg/kg/injection, schedule: Q01DX009 (ip), vehicle: Klucel (hydroxypropylcellulose) (HPC)); 87 % of control (dose: 40.0 mg/kg/injection, schedule: Q01DX009 (ip), vehicle: Klucel (hydroxypropylcellulose) (HPC)).
As to `COc1cc(C)c2[nH]c3c(C)c(Cl)ccc3c(=O)c2c1`, the T/C was 97 % of control (dose: 50.0 mg/kg/injection, schedule: Q01DX005 (ip), vehicle: Klucel + Tween-80); 93 % of control (dose: 100.0 mg/kg/injection, schedule: Q01DX005 (ip), vehicle: Klucel + Tween-80); 96 % of control (dose: 200.0 mg/kg/injection, schedule: Q01DX005 (ip), vehicle: Klucel + Tween-80).
In the case of `O=C(O)c1ccccc1C(=O)Nc1ccccc1C(F)(F)F`, the T/C is 110 % of control (dose: 178.0 mg/kg/injection, schedule: Q01DX009 (ip), vehicle: saline with Tween-80); 104 % of control (dose: 266.0 mg/kg/injection, schedule: Q01DX009 (ip), vehicle: saline with Tween-80); 101 % of control (dose: 400.0 mg/kg/injection, schedule: Q01DX009 (ip), vehicle: saline with Tween-80).
For the compound `C=Cc1cc[n+](CC(=O)c2ccccc2)cc1`, the T/C was 90 % of control (dose: 3.12 mg/kg/injection, schedule: Q01DX009 (ip), vehicle: saline); 90 % of control (dose: 6.25 mg/kg/injection, schedule: Q01DX009 (ip), vehicle: saline); 103 % of control and 90 % of control (dose: 12.5 mg/kg/injection, schedule: Q01DX009 (ip), vehicle: saline).
For the compound `CCN(CC)CCNc1ccc(C)c2sc3ccc(OC)cc3c(=O)c12`, the T/C is 115 % of control (dose: 25.0 mg/kg/injection, schedule: Q01DX009 (ip), vehicle: saline with Tween-80); 115 % of control and 90 % of control (dose: 50.0 mg/kg/injection, schedule: Q01DX009 (ip), vehicle: saline with Tween-80).
As to `CC[CH2][Sn]([F])([F])[CH2]CC`, the T/C is 105 % of control (dose: 0.78 mg/kg/injection, schedule: Q04DX003 (ip), vehicle: saline); 100 % of control and 114 % of control (dose: 1.56 mg/kg/injection, schedule: Q04DX003 (ip), vehicle: saline); 102 % of control (dose: 3.12 mg/kg/injection, schedule: Q04DX003 (ip), vehicle: saline); 105 % of control (dose: 6.25 mg/kg/injection, schedule: Q04DX003 (ip), vehicle: saline); 114 % of control (dose: 12.5 mg/kg/injection, schedule: Q04DX003 (ip), vehicle: saline).
As for `COc1cccc(-c2nnc(-c3nc[nH]c3C)o2)c1`, the T/C runs as follows: (dose: 100.0 mg/kg/injection, schedule: Q04DX002 (ip), vehicle: Klucel (hydroxypropylcellulose) (HPC)) 100 % of control; (dose: 200.0 mg/kg/injection, schedule: Q04DX002 (ip), vehicle: Klucel (hydroxypropylcellulose) (HPC)) 95 % of control.
On to `COc1cc(/C=N/NC(=O)COCC(=O)N/N=C/c2ccc(O)cc2OC)ccc1O`, for which the T/C by setting is: (dose: 6.25 mg/kg/injection, schedule: Q01DX005 (ip), vehicle: saline with Tween-80) 103 % of control; (dose: 12.5 mg/kg/injection, schedule: Q01DX005 (ip), vehicle: saline with Tween-80) 101 % of control; (dose: 25.0 mg/kg/injection, schedule: Q01DX005 (ip), vehicle: saline with Tween-80) 105 % of control.
In the case of `O=C(OCC1OC(C2N(c3ccccc3)CCN2c2ccccc2)C(OC(=O)c2ccccc2)C1OC(=O)c1ccccc1)c1ccccc1` (stereo unspecified), the T/C is 102 % of control (dose: 12.5 mg/kg/injection, schedule: Q01DX009 (ip), vehicle: distilled water + Tween-80); 102 % of control (dose: 25.0 mg/kg/injection, schedule: Q01DX009 (ip), vehicle: distilled water + Tween-80); 94 % of control (dose: 50.0 mg/kg/injection, schedule: Q01DX009 (ip), vehicle: distilled water + Tween-80); 102 % of control (dose: 100.0 mg/kg/injection, schedule: Q01DX009 (ip), vehicle: distilled water + Tween-80); 93 % of control (dose: 200.0 mg/kg/injection, schedule: Q01DX009 (ip), vehicle: distilled water + Tween-80).
With `CC(=O)N1CCCC2=C1CCCCCCCCCC2`, the T/C runs as follows: under setting [4], 99 % of control; under setting [5], 105 % of control; under setting [6], 96 % of control.
Take `Cc1cnc(Sc2ncccn2)c([N+](=O)[O-])c1`: the T/C reads like this: (dose: 50.0 mg/kg/injection, schedule: Q01DX009 (ip), vehicle: saline) 101 % of control; (dose: 100.0 mg/kg/injection, schedule: Q01DX009 (ip), vehicle: saline) 104 % of control; (dose: 200.0 mg/kg/injection, schedule: Q01DX009 (ip), vehicle: saline) 104 % of control.
Regarding `Nc1n[nH]c(CCCCc2nc(N)n[nH]2)n1`, the T/C was 97 % of control under setting [7], 99 % of control under setting [8] and 98 % of control under setting [9].
Regarding `COc1ccc2nc(C#N)sc2c1`, the T/C is 86 % of control under setting [10], 92 % of control under setting [11] and 100 % of control under setting [12].
As to `CCOP(O)(=S)OCC`, the T/C is, setting by setting: (dose: 12.5 mg/kg/injection, schedule: Q01DX001 (ip), vehicle: saline) 94 % of control; (dose: 25.0 mg/kg/injection, schedule: Q01DX001 (ip), vehicle: saline) 100 % of control; (dose: 100.0 mg/kg/injection, schedule: Q01DX001 (ip), vehicle: Klucel (hydroxypropylcellulose) (HPC)) 89 % of control; (dose: 100.0 mg/kg/injection, schedule: Q01DX001 (ip), vehicle: saline) 103 % of control; (dose: 100.0 mg/kg/injection, schedule: Q04DX003 (ip), vehicle: Klucel (hydroxypropylcellulose) (HPC)) 92 % of control; under setting [4], 88 % of control. In addition, the T/C by setting is: (dose: 200.0 mg/kg/injection, schedule: Q01DX001 (ip), vehicle: Klucel (hydroxypropylcellulose) (HPC)) 108 % of control; (dose: 200.0 mg/kg/injection, schedule: Q01DX001 (ip), vehicle: saline) 98 % of control and 106 % of control; (dose: 200.0 mg/kg/injection, schedule: Q04DX003 (ip), vehicle: Klucel (hydroxypropylcellulose) (HPC)) 89 % of control; under setting [5], 90 % of control; (dose: 400.0 mg/kg/injection, schedule: Q01DX001 (ip), vehicle: Klucel (hydroxypropylcellulose) (HPC)) 92 % of control; (dose: 400.0 mg/kg/injection, schedule: Q01DX001 (ip), vehicle: saline) 108 % of control and 106 % of control. The T/C reads like this: (dose: 400.0 mg/kg/injection, schedule: Q04DX003 (ip), vehicle: Klucel (hydroxypropylcellulose) (HPC)) 90 % of control; under setting [6], 101 % of control.
For `CCOC(=O)c1cnc2cc(F)ccc2c1Nc1ccc2c(c1)OCO2`, the T/C runs as follows: under setting [7], 99 % of control; under setting [8], 97 % of control; under setting [9], 105 % of control.
As for `CNC(=S)C(N)CCCC1NC(=S)N(C)C1=O` (stereo unspecified), the T/C runs as follows: under setting [10], 99 % of control; under setting [11], 89 % of control; under setting [12], 88 % of control.
Regarding `O=C(NC1COB(c2cc(C(F)(F)F)cc(C(F)(F)F)c2)OC1c1ccc([N+](=O)[O-])cc1)C(Cl)Cl` (stereo unspecified), the T/C under setting [7] was 100 % of control, the T/C under setting [8] was 100 % of control and the T/C under setting [9] is 99 % of control.
Turning to `CC1(C=O)CCCC2(C)[C@@H]1CCC13CC(CO)C(CC[C@H]12)C3` (stereo partly specified), the T/C reads like this: (dose: 1.63 mg/kg/injection, schedule: Q01DX005 (ip), vehicle: Klucel (hydroxypropylcellulose) (HPC)) 86 % of control; (dose: 3.25 mg/kg/injection, schedule: Q01DX005 (ip), vehicle: Klucel (hydroxypropylcellulose) (HPC)) 88 % of control.
`S=C(NCNC(=S)c1ccncc1)c1ccncc1`: the T/C reads like this: under setting [1], 100 % of control and 111 % of control; under setting [2], 108 % of control and 120 % of control; under setting [3], 104 % of control.
As to `O=C1C(O)=C(O)C(=O)c2cc3c(cc21)OCO3`, the T/C under setting [7] was 98 % of control, the T/C under setting [8] was 102 % of control and the T/C under setting [9] was 102 % of control.

The values are drawn from PubChem BioAssay AID330 (DTP/NCI, 2004).
